Experimental data published in PMC12494099, “Discovery and Characterization of Novel IKZF1/3 Glue Degraders against Multiple Hematological Cancer Cell Lines” (Oncology Research, 2025).

What was measured:
Format in all cases: cell-based
[1] = system: MV-4-11; experiment: Cell viability (CCK-8) assay; conditions: 96 h, CCK-8
Description: (§1) The plated at a density of 15,000 cells per well, and each well contained 100 µL of medium. Subsequently, different compounds (MGD-AX, MGD-BX, MGD-CX) were added to each well. […] To evaluate the antiproliferative effects of these compounds, the Cell Counting Kit-8 (CCK-8, #CX007, Epizyme, Shanghai, China) was used. All procedures were carried out in strict accordance with the manufacturer’s instructions (Dojindo Laboratories, Mamoto Ken, Japan).

[2] = system: NCI-H929; experiment: Cell viability (CCK-8) assay
Description: as §1

[3] = system: Ocl-Ly3; experiment: Cell viability (CCK-8) assay; conditions: 96 h, CCK-8
Description: as §1

[4] = biological target: T1, IKZF1-HiBiT (Homo sapiens, UniProt Q13422+Q96SW2); experiment: Quantitative degradation assay using the HiBiT system (HEK293T); conditions: HEK-293T; HEK293T IKZF1-HiBiT, 24 h; read-out: maximal degradation (Dmax) on IKZF1
T1 construct: expressed in transfected cells; host or cells: HEK293T
Description: (§2) An in vitro quantitative degradation assay utilizing the HiBiT system was carried out as previously described. To evaluate the degradation of IKZF1, IKZF2, and IKZF3 proteins, HEK293T cell lines stably expressing IKZF1-, IKZF2-, IKZF3-, GSPT1- or CK1α-HiBiT were cultured in 96-well plates at 12,000 cells per well. […] After the treatment, cell lysis was carried out using the Nano-Glo HiBiT Lytic Detection System (#N3040, Promega). All lysis operations were strictly carried out according to the manufacturer’s specific protocol. Then, the SpectraMax iD3 instrument (Molecular Devices, San Jose, CA, USA) was used to detect the luminescent signals released by the HiBiT-tagged neosubstrates.

[5] = biological target: T2, IKZF3-HiBiT (Homo sapiens, UniProt Q96SW2+Q9UKT9); experiment: as above; conditions: HEK-293T; HEK293T IKZF3-HiBiT, 24 h; read-out: maximal degradation (Dmax) on IKZF3
T2 construct: expressed in transfected cells; host or cells: HEK293T
Description: as §2

T2 sequence (Q9UKT9 whole entry): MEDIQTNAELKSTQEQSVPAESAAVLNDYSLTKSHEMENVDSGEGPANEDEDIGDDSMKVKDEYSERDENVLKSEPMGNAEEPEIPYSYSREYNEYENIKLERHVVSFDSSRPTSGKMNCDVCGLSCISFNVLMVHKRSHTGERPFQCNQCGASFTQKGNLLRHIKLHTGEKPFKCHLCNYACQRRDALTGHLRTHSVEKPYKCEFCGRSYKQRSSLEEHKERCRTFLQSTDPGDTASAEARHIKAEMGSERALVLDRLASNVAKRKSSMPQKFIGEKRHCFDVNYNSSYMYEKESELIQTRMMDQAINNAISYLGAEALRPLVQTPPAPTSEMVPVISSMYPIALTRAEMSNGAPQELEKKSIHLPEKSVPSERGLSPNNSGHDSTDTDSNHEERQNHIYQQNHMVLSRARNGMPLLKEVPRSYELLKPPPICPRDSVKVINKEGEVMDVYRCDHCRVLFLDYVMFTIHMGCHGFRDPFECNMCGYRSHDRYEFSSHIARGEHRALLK
T2 sequence (Q96SW2 whole entry): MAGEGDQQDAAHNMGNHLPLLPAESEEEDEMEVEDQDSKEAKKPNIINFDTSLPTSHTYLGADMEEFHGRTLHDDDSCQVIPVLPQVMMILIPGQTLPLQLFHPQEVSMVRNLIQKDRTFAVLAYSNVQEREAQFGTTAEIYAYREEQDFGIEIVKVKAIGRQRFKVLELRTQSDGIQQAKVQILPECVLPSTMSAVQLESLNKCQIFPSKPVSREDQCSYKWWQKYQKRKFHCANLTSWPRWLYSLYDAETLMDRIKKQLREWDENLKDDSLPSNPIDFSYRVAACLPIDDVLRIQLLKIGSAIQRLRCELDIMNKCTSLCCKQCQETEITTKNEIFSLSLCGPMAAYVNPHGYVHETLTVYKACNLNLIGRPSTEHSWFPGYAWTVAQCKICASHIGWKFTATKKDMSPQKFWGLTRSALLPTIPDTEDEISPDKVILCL
T2 sequence (Q16531 whole entry partner): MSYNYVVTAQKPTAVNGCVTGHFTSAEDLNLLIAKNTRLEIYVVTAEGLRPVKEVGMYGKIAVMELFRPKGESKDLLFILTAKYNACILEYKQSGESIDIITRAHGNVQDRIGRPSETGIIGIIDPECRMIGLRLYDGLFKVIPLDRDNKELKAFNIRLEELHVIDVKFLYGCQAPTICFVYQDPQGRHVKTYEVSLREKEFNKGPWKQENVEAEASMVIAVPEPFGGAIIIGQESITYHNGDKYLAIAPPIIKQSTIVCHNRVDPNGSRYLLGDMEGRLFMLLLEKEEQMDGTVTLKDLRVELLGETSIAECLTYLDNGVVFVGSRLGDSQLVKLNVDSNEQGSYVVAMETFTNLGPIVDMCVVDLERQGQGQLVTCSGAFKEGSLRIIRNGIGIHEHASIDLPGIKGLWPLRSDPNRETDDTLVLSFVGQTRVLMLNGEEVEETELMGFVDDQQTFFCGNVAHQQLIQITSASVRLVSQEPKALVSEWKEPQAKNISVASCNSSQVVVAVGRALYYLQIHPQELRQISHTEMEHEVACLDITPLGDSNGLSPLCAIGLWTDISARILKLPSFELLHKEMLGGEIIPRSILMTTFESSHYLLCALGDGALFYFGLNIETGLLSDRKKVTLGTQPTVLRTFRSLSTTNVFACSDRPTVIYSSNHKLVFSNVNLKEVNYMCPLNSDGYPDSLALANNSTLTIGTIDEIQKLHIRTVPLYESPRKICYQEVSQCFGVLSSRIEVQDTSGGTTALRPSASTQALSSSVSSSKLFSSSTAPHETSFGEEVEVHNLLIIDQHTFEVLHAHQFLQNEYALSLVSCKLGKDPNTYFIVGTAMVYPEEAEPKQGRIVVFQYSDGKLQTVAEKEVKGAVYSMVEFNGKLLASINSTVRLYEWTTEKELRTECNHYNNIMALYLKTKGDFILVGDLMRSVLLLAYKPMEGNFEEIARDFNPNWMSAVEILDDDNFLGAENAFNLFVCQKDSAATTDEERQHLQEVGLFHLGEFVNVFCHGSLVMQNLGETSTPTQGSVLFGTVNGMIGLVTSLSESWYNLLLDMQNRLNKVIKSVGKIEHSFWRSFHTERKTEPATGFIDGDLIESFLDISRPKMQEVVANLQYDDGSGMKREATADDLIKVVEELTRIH
T1 sequence (Q13422 whole entry): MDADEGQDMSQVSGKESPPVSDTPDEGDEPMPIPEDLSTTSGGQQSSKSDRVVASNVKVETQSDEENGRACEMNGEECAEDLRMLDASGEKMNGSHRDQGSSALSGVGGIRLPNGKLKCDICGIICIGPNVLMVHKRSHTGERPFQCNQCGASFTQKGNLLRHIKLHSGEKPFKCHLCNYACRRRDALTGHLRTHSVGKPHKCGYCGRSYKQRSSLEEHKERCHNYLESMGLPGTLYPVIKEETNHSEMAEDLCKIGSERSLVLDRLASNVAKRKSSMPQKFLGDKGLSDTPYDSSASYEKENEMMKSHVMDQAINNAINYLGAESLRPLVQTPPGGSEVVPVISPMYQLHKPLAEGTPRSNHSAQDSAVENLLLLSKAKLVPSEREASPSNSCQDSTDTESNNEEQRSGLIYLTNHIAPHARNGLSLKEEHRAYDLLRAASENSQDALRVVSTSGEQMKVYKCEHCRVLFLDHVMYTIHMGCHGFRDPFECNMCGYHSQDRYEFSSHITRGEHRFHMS
T1 sequence (Q96SW2 whole entry): as the sequence (Q96SW2 whole entry) above
T1 sequence (Q16531 whole entry partner): as the sequence (Q16531 whole entry partner) above

IC50 ([1]; Homo sapiens, MV4-11, 96 h)	IC50 ([2]; Homo sapiens, NCI-H929, 96 h)	IC50 [1]	IC50 ([2]; 96 h)	Dmax [4]	Dmax [5]	Compound	IC50 [3]
1.33 ± 0.13 µM	1.77 ± 0.17 µM					CN1CCN(Cc2cccc(C(=O)NC3CCC(=O)NC3=O)n2)C(=O)C1 (centres unmarked) [MGD-B8, N-(2,6-dioxopiperidin-3-yl)-6-((4-methyl-2-oxopiperazin-1-yl)methyl)picolinamide]	8.43 ± 0.8 µM
26.5 ± 2.52 µM	9.86 ± 0.94 µM					O=C1CCC(N2C(=O)c3ccccc3C2=O)C(=O)N1 (centres unmarked) [Thalidomide, reference compound]	> 33 µM
0.54 ± 0.05 µM	0.77 ± 0.04 µM					CN1CCN(Cc2cccc(C(=O)NC3CCC(=O)NC3=O)c2F)CC1 (centres unmarked) [MGD-C2, N-(2,6-dioxopiperidin-3-yl)-2-fluoro-3-((4-methylpiperazin-1-yl)methyl)benzamide]	1.64 ± 0.37 µM
2.43 ± 0.33 µM	1.79 ± 0.27 µM					O=C1CCC(NC(=O)c2cccc(CN3CCSCC3)c2F)C(=O)N1 (centres unmarked) [MGD-C4, N-(2,6-dioxopiperidin-3-yl)-2-fluoro-3-(thiomorpholinomethyl)benzamide]	5.01 ± 0.48 µM
3.02 ± 0.29 µM	4.65 ± 0.44 µM					O=C1CCC(NC(=O)c2cccc(CN3CCOCC3)n2)C(=O)N1 (centres unmarked) [MGD-B4, N-(2,6-dioxopiperidin-3-yl)-6-(morpholinomethyl)picolinamide]	15 ± 1.42 µM
1.58 ± 0.47 µM	2.77 ± 0.36 µM					O=C1CCC(NC(=O)c2cccc(CN3CCSCC3)n2)C(=O)N1 (centres unmarked) [MGD-B5, N-(2,6-dioxopiperidin-3-yl)-6-(thiomorpholinomethyl)picolinamide]	4.68 ± 2.44 µM
0.68 ± 0.07 µM	0.93 ± 0.15 µM					O=C1CCC(NC(=O)c2cccc(CN3CCOCC3=O)c2F)C(=O)N1 (centres unmarked) [MGD-C7, N-(2,6-dioxopiperidin-3-yl)-2-fluoro-3-((3-oxomorpholino)methyl)benzamide]	2.11 ± 0.2 µM
5.65 ± 0.54 µM	3.21 ± 0.31 µM					O=C1CCC(NC(=O)c2cccc(CN3CCCCC3=O)n2)C(=O)N1 (centres unmarked) [MGD-B7, N-(2,6-dioxopiperidin-3-yl)-6-((2-oxopiperidin-1-yl)methyl)picolinamide]	15.2 ± 1.44 µM
5.54 ± 0.53 µM	4.32 ± 0.41 µM					O=C1CCC(NC(=O)c2cccc(CN3CCSCC3=O)n2)C(=O)N1 (centres unmarked) [MGD-B10, N-(2,6-dioxopiperidin-3-yl)-6-((3-oxothiomorpholino)methyl)picolinamide]	13.2 ± 1.26 µM
1.63 ± 0.16 µM	1.33 ± 0.13 µM					O=C1CCC(NC(=O)c2cccc(CN3CCCCC3=O)c2F)C(=O)N1 (centres unmarked) [MGD-C6, N-(2,6-dioxopiperidin-3-yl)-2-fluoro-3-((2-oxopiperidin-1-yl)methyl)benzamide]	5.95 ± 0.57 µM
0.72 ± 0.13 µM	0.92 ± 0.12 µM					CN1CCN(Cc2cccc(C(=O)NC3CCC(=O)NC3=O)n2)CC1 (centres unmarked) [MGD-B3, N-(2,6-dioxopiperidin-3-yl)-6-((4-methylpiperazin-1-yl)methyl)picolinamide]	2.03 ± 0.39 µM
1.93 ± 0.18 µM	2.34 ± 0.22 µM					O=C1CCC(NC(=O)c2cccc(CN3CCOCC3=O)n2)C(=O)N1 (centres unmarked) [MGD-B9, N-(2,6-dioxopiperidin-3-yl)-6-((3-oxomorpholino)methyl)picolinamide]	9.35 ± 0.89 µM
2.22 ± 0.21 µM	2.04 ± 0.19 µM					O=C1CCC(NC(=O)c2cccc(CN3CCCC3=O)c2F)C(=O)N1 (centres unmarked) [MGD-C5, N-(2,6-dioxopiperidin-3-yl)-2-fluoro-3-((2-oxopyrrolidin-1-yl)methyl)benzamide]	5.05 ± 0.48 µM
		1.73 ± 0.17 µM	1.23 ± 0.12 µM			N-(2,6-dioxopiperidin-3-yl)-2-fluoro-3-((2-oxopiperidin-1-yl)methyl)benzamide [MGD-C8]	3.28 ± 0.31 µM
3.34 ± 0.32 µM	4.89 ± 0.47 µM					O=C1CCC(NC(=O)c2cccc(CN3CCCC3=O)n2)C(=O)N1 (centres unmarked) [MGD-B6, N-(2,6-dioxopiperidin-3-yl)-6-((2-oxopyrrolidin-1-yl)methyl)picolinamide]	27.5 ± 2.62 µM
0.93 ± 0.048 µM	1.98 ± 0.19 µM					O=C1CCC(NC(=O)c2cccc(CN3CCOCC3)c2F)C(=O)N1 (centres unmarked) [MGD-C3, N-(2,6-dioxopiperidin-3-yl)-2-fluoro-3-(morpholinomethyl)benzamide]	2.39 ± 0.23 µM
		7.36 ± 0.7 µM	6.91 ± 0.66 µM			N-(2,6-dioxopiperidin-3-yl)-2-fluoro-3-(piperidin-1-ylmethyl)benzamide [MGD-C1]	12.6 ± 1.2 µM

More lines, now with the values behind:

Compound	IC50 ([1]; Homo sapiens, MV4-11, 96 h)	IC50 ([2]; Homo sapiens, NCI-H929, 96 h)	IC50 [1]	IC50 ([2]; 96 h)	Dmax [4]	Dmax [5]	IC50 [3]
O=C1CCC(NC(=O)c2cccc(C(=O)N3CCSCC3)c2)C(=O)N1 (centres unmarked) [MGD-A15, N-(2,6-dioxopiperidin-3-yl)-3-(thiomorpholine-4-carbonyl)benzamide]	4.45 ± 0.42 µM	6.9 ± 0.66 µM					9.43 ± 0.9 µM
O=C1CCC(NC(=O)c2cccc(CNCC3CC3)c2)C(=O)N1 (centres unmarked) [MGD-A2, 3-(((cyclopropylmethyl)amino)methyl)-N-(2,6-dioxopiperidin-3-yl)benzamide]	8.3 ± 0.79 µM	12.7 ± 1.21 µM					21.3 ± 2.03 µM
CC1CCN(Cc2cccc(C(=O)NC3CCC(=O)NC3=O)c2)CC1 (centres unmarked) [MGD-A5, N-(2,6-dioxopiperidin-3-yl)-3-((4-methylpiperidin-1-yl)methyl)benzamide]	2.03 ± 0.19 µM	2.88 ± 0.28 µM					4.03 ± 0.38 µM
CCN1CCN(Cc2cccc(C(=O)NC3CCC(=O)NC3=O)c2)CC1 (centres unmarked) [MGD-A8, N-(2,6-dioxopiperidin-3-yl)-3-((4-ethylpiperazin-1-yl)methyl)benzamide]	0.8 ± 0.1 µM	0.9 ± 0.13 µM					4.12 ± 0.39 µM
CC1CCCN(Cc2cccc(C(=O)NC3CCC(=O)NC3=O)c2)C1 (centres unmarked) [MGD-A4, N-(2,6-dioxopiperidin-3-yl)-3-((3-methylpiperidin-1-yl)methyl)benzamide]	3.11 ± 0.3 µM	4.56 ± 0.44 µM					6.33 ± 0.6 µM
CC1CCCC(C)N1C(=O)c1cccc(C(=O)NC2CCC(=O)NC2=O)c1 (centres unmarked) [MGD-A13, 3-(2,6-dimethylpiperidine-1-carbonyl)-N-(2,6-dioxopiperidin-3-yl)benzamide]	9.26 ± 0.88 µM	10.3 ± 0.98 µM					17.2 ± 1.64 µM
N-(2,6-dioxopiperidin-3-yl)-3-(thiomorpholinomethyl)cyclohexa-1,3-diene-1-carboxamide [MGD-A9]			1.9 ± 0.18 µM	2.11 ± 0.2 µM			5.44 ± 0.52 µM
O=C1CCC(NC(=O)c2cccc(CN3CCCC3)n2)C(=O)N1 (centres unmarked) [MGD-B1, N-(2,6-dioxopiperidin-3-yl)-6-(pyrrolidin-1-ylmethyl)picolinamide]	15 ± 1.42 µM	7.9 ± 0.75 µM					22.4 ± 2.13 µM
CC1CCCCN1Cc1cccc(C(=O)NC2CCC(=O)NC2=O)c1 (centres unmarked) [MGD-A3, N-(2,6-dioxopiperidin-3-yl)-3-((2-methylpiperidin-1-yl)methyl)benzamide]	6.03 ± 0.58 µM	5.39 ± 0.51 µM					7.27 ± 0.69 µM
O=C1CCC(NC(=O)c2cccc(CNC3CC3)c2)C(=O)N1 (centres unmarked) [MGD-A1, 3-((cyclopropylamino)methyl)-N-(2,6-dioxopiperidin-3-yl)benzamide]	7.34 ± 0.7 µM	10.3 ± 0.98 µM					> 33 µM
CC1CCCC(C)N1Cc1cccc(C(=O)NC2CCC(=O)NC2=O)c1 (centres unmarked) [MGD-A6, 3-((2,6-dimethylpiperidin-1-yl)methyl)-N-(2,6-dioxopiperidin-3-yl)benzamide]	3.44 ± 0.33 µM	3.02 ± 0.38 µM					5.9 ± 0.56 µM
Nc1cccc2c1CN(C1CCC(=O)NC1=O)C2=O (centres unmarked) [Lenalidomide, reference compound]	17.9 ± 1.7 µM	7.36 ± 0.7 µM					27.6 ± 2.63 µM
Cc1nc2cccc(N)c2c(=O)n1C1CCC(=O)NC1=O (centres unmarked) [Avadomide, reference compound]	0.85 µM	0.2 µM			80.4%	83.1%	15.5 µM
O=C1CCC(NC(=O)c2cccc(CN3CCCCC3)n2)C(=O)N1 (centres unmarked) [MGD-B2, N-(2,6-dioxopiperidin-3-yl)-6-(piperidin-1-ylmethyl)picolinamide]	6.78 ± 0.65 µM	8.5 ± 0.81 µM					> 33 µM
